Converted amounts (≈) assume the structure as drawn. Where two headings read alike, the source gives them in different places. Marks after values point to notes of the source that are not given here. Each block holds one compound with its values, some of them ahead of it.
Experiments:
[1] = design: method as in PMID 33763478; details: similar isoxazole series, earlier report; cited from earlier work
[2] = system: total antioxidant capacity (TAC) in the blood of mice; assay: In vivo total antioxidant capacity (TAC) in mice, Abcam ab65329 kit; details: for TAC (Trolox equivalents): plasma
Procedure: For this purpose, the TAC was determined using a commercially available assay kit (Abcam ab65329), in four groups of mice: 2a treated (5 mg/kg over 6 days, n = 5), 2a treated (10 mg/kg over 6 days, n = 5), quercetin treated (positive control; 10 mg/kg over 6 days, n = 5), and vehicle-treated (negative control; n = 5). All mice were sacrificed seven days after the treatment (or the first administration of the vehicle).
The absorbance values of the used kit were plotted against a serial concentration of Trolox standards in the concentration range of (4–20 nM). […] The generated regression line equation was utilized to calculate the Trolox equivalent total antioxidant activity of the injected compound and positive quercetin control of the experimental mice. The average results of the total antioxidant activity of ten replicates of plasma samples were reported. […] The summary of the results is shown in (Fig. 6).
Twenty mice were divided into four groups randomly, with five mice in each. The first group was administered with our novel compound 2a (5 mg/kg), the second group with the same compound (10 mg/kg), the third group with Quercetin (10 mg/kg) as a positive control, and the fourth group with normal saline (20%) and propylene glycol 80% as a negative control group.
To test the TAC of the novel compound, four groups of mice were injected intraperitoneal (i.p.) and employed with vehicle (80% polyethylene glycol (PG) and 20% normal saline (NS) for 6 days. The first and second groups were injected with 5 and 10 mg/kg/day of 2a compound dissolved in the same vehicle, respectively. The third group was injected with a known antioxidant agent positive control (Quercetin), with 10 mg/kg/day, and the last group was the negative control group (80% polyethylene glycol (PG) and 20% Normal saline (NS). All mice were anesthetized with ketamine (60 mg/kg) and xylazine (5 mg/kg) and sacrificed 24 h after the final injection. Then, the mouse blood sample was collected and centrifuged to collect serum. For long-term stability, serum was frozen at − 20 °C[27],[28].
All mice were sacrificed after seven days of treatment by placing each mouse in a plexiglass chamber with 5% of isoflurane anesthetic drug, for 5 min, and then when the mouse was fully sedated, they were sacrificed by rapid decapitation. Trunk blood was collected in EDTA-coated tubes for use in the kit assay[29],[30].
Using DPPH assay that basis on measures the total antioxidant capacity (TAC) of compounds that can transfer hydrogen atoms. […] Antioxidant compounds, which can transfer an electron to DMPD• + , cause a discoloration of the solution. […] The reduced Cu + ion is chelated with a colorimetric probe giving a broad absorbance peak around 570 nm, proportional to the total antioxidant capacity. […]

[3] = DPPH free radical scavenging assay (in vitro antioxidant activity); details: DPPH in methanol, 30 min in the dark at 25 °C, absorbance 517 nm
Excerpt: To determine the antioxidant activities, the 2,2-Diphenyl-1-picrylhydrazyl (DPPH) was used, which is considered one of the most widely used methods for measuring the in vitro antioxidant activity of various chemical compounds. This colorimetric method is accurate, easy to perform, and economical, providing a screening of the general activity of the antioxidants and is based on a stable and synthetic radical, DPPH[15].
When DPPH reacts with an antioxidant compound, its free radical property is lost and its color changes from violet to yellow. The decrease in absorbance at 517 nm induced by antioxidants determines the reduction ability of DPPH.
The free DPPH radical scavenging assay was used to measure the antioxidant activity of the isoxazole derivatives. A 1000 μg/ml stock solution of each compound was prepared in methanol. In addition, a 1000 μg/ml solution of Trolox was also prepared (the reference standard). […] Optical densities were then measured with a spectrophotometer at a wavelength of 517 nm. The following equation was used to calculate % DPPH inhibition for each compound, with Trolox as the standard compound: DPPHinhibition%=AB-Ats/AB×100% where, AB is the recorded absorbance of the blank solution, and Ats is the recorded absorbance of the tested sample solution[25].

[4] = target: T1, porcine pancreatic lipase (Sus scrofa, UniProt P00591); assay: Porcine pancreatic lipase inhibition assay; format: biochemical; details: substrate p-nitrophenyl butyrate, 37 °C, 410 nm; highest concentration 400 µg/ml
T1 construct: purchased Alfa Aesar, Sigma-Aldrich, and Frutarom (UK)
T1 sequence (P00591 1-450): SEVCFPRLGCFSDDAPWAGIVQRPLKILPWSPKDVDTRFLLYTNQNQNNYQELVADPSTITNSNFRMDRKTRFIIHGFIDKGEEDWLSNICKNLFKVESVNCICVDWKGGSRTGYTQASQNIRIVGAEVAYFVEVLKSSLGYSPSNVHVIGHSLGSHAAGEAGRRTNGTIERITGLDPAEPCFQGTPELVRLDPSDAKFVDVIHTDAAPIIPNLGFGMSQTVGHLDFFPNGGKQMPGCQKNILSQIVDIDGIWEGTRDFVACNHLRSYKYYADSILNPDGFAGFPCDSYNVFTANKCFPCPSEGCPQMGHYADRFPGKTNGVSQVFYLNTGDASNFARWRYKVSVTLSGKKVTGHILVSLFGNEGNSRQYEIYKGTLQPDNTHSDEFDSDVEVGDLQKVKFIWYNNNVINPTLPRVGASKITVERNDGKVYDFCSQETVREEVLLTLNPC
Procedure: Stock solutions of 500 µg/ml were made from each compound in 10% DMSO. From these, a dilution series of five concentrations of 50, 100, 200, 300, and 400 μg/ml were made. A 1 mg/ml stock solution of porcine pancreatic lipase in Tris–HCl buffer was prepared freshly just before use. The substrate, p-nitrophenyl butyrate (PNPB) was prepared by dissolving 20.9 mg in 2 ml acetonitrile. For each working solution, 0.1 ml porcine pancreatic lipase was mixed with 0.2 ml of compound solution from each member of the dilution series. Tris–HCl was added to make the final volume of the working solutions 1 ml, and they were incubated at 37 °C for 15 min. After incubation, 0.1 ml p-nitrophenyl butyrate solution was added to each test tube. The mixture was then incubated for a further 30 min at 37 °C. Pancreatic lipase activity was determined by measuring the hydrolysis of PNPB into p-nitrophenolate at 410 nm, using a UV spectrophotometer. […] Percentage lipase inhibition by compound dilution was calculated with the following equation: Lipaseinhibition%=AB-Ats/AB×100% where, AB is the recorded absorbance of the blank solution, and Ats is the recorded absorbance of the tested sample solution[31].

Hep3B = system: Hep3B; design: method as in doi:10.1515/chem-2021-0078; details: Hep3B cancer cell line; cited from earlier work
[5] = target: T2, porcine pancreatic α-amylase (Sus scrofa, UniProt P00690); assay: α-Amylase inhibitory assay; format: biochemical
T2 construct: purchased Alfa Aesar, Sigma-Aldrich, and Frutarom (UK)
T2 sequence (P00690 16-511): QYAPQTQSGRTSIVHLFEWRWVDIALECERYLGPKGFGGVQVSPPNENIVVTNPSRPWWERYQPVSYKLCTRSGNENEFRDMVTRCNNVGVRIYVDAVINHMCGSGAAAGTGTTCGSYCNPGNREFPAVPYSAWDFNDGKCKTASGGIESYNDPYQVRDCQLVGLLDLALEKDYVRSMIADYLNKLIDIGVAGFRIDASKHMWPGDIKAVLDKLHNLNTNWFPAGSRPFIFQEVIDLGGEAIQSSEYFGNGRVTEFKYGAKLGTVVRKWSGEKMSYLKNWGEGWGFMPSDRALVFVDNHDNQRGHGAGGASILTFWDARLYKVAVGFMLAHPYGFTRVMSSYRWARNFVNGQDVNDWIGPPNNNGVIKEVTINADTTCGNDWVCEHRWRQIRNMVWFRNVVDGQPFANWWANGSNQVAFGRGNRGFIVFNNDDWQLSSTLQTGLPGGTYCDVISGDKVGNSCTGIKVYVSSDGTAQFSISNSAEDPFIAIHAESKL
Procedure: A 5 mg of each fraction was dissolved in a few milliliters of 10% DMSO, and then further dissolved up to 100 ml in 0.02 M Na2HPO4/NaH2PO4, 0.006 M NaCl, pH 6.9 to give finally stock solutions with concentrations of 1000 μg/ml. From these, the following dilutions were prepared of 10, 50, 70, 100, and 500 μg/ml, using 10% DMSO as the diluent. A 0.2 ml volume of 2 units/ml porcine pancreatic α-amylase was mixed with 0.2 ml compounds dilution and was incubated for 10 min at 30 °C. After incubation, 0.2 ml of a freshly prepared 1% starch solution in water was added, and the tubes were then incubated for at least three more minutes. At this point, the reaction was stopped by the addition of 0.2 ml 3,5-dinitro salicylic acid (DNSA) color reagent and was diluted with 5 ml of distilled water, before being heated at 90 °C for 10 min in a water bath. The mixture was then cooled to room temperature, and the absorbance was measured at 540 nm. The blank control was prepared using the same quantities described above, but replacing the compound solution with 0.2 ml buffer.

Water solubility = format: physicochemical; details: can be dissolved with propylene glycol

Compound: Cc1onc(-c2ccccc2Cl)c1C(=O)Nc1ccc(C(C)(C)C)cc1 [N-(4-(tert-butyl)phenyl)-3-(2-chlorophenyl)-5-methylisoxazole-4-carboxamide]
IC50 DPPH [1]: 7.8 µg/mL (≈ 21.1 µM)

Compound: O=c1c(O)c(-c2ccc(O)c(O)c2)oc2cc(O)cc(O)c12 [Quercetin, reference compound]
TAC (Trolox equivalents) ([2]; 10 mg/kg i.p. over 6 days): 221.0 nmol L–1

IC50 DPPH [3]: 3.10 ± 0.92^a µg/ml
Compound: Cc1c(C)c2c(c(C)c1O)CCC(C)(C(=O)O)O2 (stereo not drawn) [Trolox, reference compound]

IC50 [4]: > 1140 µM
IC50 DPPH [3]: 0.45 ± 0.21 µg/mL (≈ 1.28 µM)
IC50 ([5]; starch substrate, DNSA, 540 nm, highest concentration 500 µg/ml): > 1420 µM
water solubility (Water solubility): low water solubility
Compound: Cc1onc(-c2ccc(F)cc2)c1C(=O)Nc1ccc(C(C)(C)C)cc1 [2a, N-(4-(tert-butyl)phenyl)-3-(4-fluorophenyl)-5-methylisoxazole-4-carboxamide]
IC50 against Hep3B (Hep3B): 9.58 µg/mL (≈ 27.2 µM)
TAC (Trolox equivalents) ([2]; 5 mg/kg i.p. over 6 days): 640.2 nmol L–1
TAC (Trolox equivalents) ([2]; 10 mg/kg i.p. over 6 days): 682.9 nmol L–1
TAC relative to mice treated with the positive control Quercetin ([2]; i.p.): two folds greater

Compound: C[C@H]1O[C@H](O[C@H]2[C@H](O)[C@@H](O)[C@@H](O[C@H]3[C@H](O)[C@@H](O)C(O)O[C@@H]3CO)O[C@@H]2CO)[C@H](O)[C@@H](O)[C@@H]1N[C@H]1C=C(CO)[C@@H](O)[C@H](O)[C@H]1O (stereo partly drawn) [Acarbose, reference compound]
inhibition at 500 µg/mL ([5]; read-out: percentage of inhibition of α-amylase): 72.5%
